In patent US11891373B2, “Crystalline forms of 1-((2R,4R)-2-(1H-benzo[d]imidazol-2-yl)-1-methylpiperidin-4-yl)-3-(4-cyanophenyl)urea maleate” (priority 2015, dated 2024):
Where a name gives a salt, the structure may show the parent alone.

How the values were obtained:
Assay type in all cases: physicochemical
[1] = Comparative thermal stability by Differential Scanning Calorimetry (DSC); conditions: 25° C. to 250° C. at 10° C./min, dry nitrogen purge
Protocol: Comparative thermal stability data was generated for glasdegib dihydrochloride monohydrate (diHCl.H2O) and glasdegib maleate (Form 1). Differential Scanning calorimetry (DSC) measurements were performed with Discovery DSC (TA instruments) equipped with a refrigerated cooling accessory. All the experiments were performed in standard/Tzero aluminum pans. The cell constant was determined using indium and temperature calibration was performed using indium and tin as standards. All the measurements were done under continuous dry nitrogen purge (50 mL/min). Approximately 2-5 mg of solid sample was weighed into a standard/Tzero aluminum pan, sealed non-hermetically and heated from 25° C. to 250° C. at 10° C./min heating rate. The experimental data were analyzed using commercially available software (TA Universal Analysis 2000/Trios software, TA Instruments).

[2] = Chemical stability of tablet cores (5% drug loading), open dish, HPLC/Purity analysis; conditions: 5% active drug loading; for % -(2S,4R)-Epimer 6 weeks @ 50° C./75% RH: open dish
Protocol: Comparative chemical and physical stability data was generated for tablet cores comprising glasdegib dihydrochloride monohydrate (diHCl.H2O) and glasdegib maleate (Form 1) stored at 50° C./75% RH for 6 weeks. The tablet cores were prepared by dry granulation processing in a formulation composition comprising microcrystalline cellulose, dicalcium phosphate, sodium starch glycolate and magnesium stearate at an active drug loading level of 5%. The tablet cores were stored in open dish (no packaging) orientation in a 50° C./75% RH chamber and analyzed after 6 weeks of storage. The analytical testing included HPLC/Purity analysis and solid state NMR (for solid form).
The primary degradation product monitored is the epimeric 1-((2S,4R)-2-(1H-benzo[d]imidazol-2-yl)-1-methylpiperidin-4-yl)-3-(4-cyanophenyl)urea, which has the structure: […]

[3] = Accelerated 21-day stability study of tablets, shelf-life prediction from (2S,4R)-epimer formation; conditions: 60 cc HDPE bottle, 30 count tablets, 25° C./60% RH, epimer limit NMT 0.5%
Protocol: See Waterman et al., Pharmaceutical Research, 24(4): 780-790 (2007). The tablets were stored in open glass bottles and exposed to various temperature, humidities and durations.
The recommended packaging for the glasdegib dihydrochloride monohydrate tablets is HDPE/IS Bottle, with desiccant. The labeled storage condition of this product is 15-25° C.
The recommended packaging for the glasdegib maleate tablets is HDPE/IS Bottle and no desiccant is required. The labeled storage condition of this product is 15-25° C.

| SMILES | Thermal Stability (stable up to) [1] | % -(2S,4R)-Epimer Initial Level ([2]; before storage) [%] | % -(2S,4R)-Epimer 6 weeks @ 50° C./75% RH [2] [%] | shelf-life predicted, stored without desiccant [3] | shelf-life predicted, with desiccant ([3]; with desiccant) |
| --- | --- | --- | --- | --- | --- |
| CN1CC[C@@H](NC(=O)Nc2ccc(C#N)cc2)C[C@@H]1c1nc2ccccc2[nH]1.O=C(O)/C=C\C(=O)O [Glasdegib maleate (Form 1), 1-((2R,4R)-2-(1H-benzo[d]imidazol-2-yl)-1-methylpiperidin-4-yl)-3-(4-cyanophenyl)urea maleate] | Stable up to 207 °C | 0.024 | 0.55 | more than 6 years | – |
| CN1CC[C@@H](NC(=O)Nc2ccc(C#N)cc2)C[C@@H]1c1nc2ccccc2[nH]1 [Glasdegib dihydrochloride monohydrate] | Stable up to 50 °C | – | 2.75 | less than 2 years | approximately 5 years |
